# Measurements reported in PMC3384000, “TCN 201 selectively blocks GluN2A-containing NMDARs in a GluN1 co-agonist dependent but non-competitive manner” (Neuropharmacology, 2012).
# Read-outs that look alike come from different tables or passages of the source.
# Legend:
# GluN1/GluN2A NMDARs [1] = molecular target: T1, GluN1/GluN2A NMDARs (Rattus norvegicus, UniProt P35439+Q00959); assay: TEVC recordings of NMDAR currents from Xenopus laevis oocytes expressing GluN1/GluN2A; assay type: cell-based; conditions: for inhibition at 10 µM: TCN 201 10 μM; for inhibition of GluN1/GluN2A NMDAR-mediated currents: antagonist 10 μM; for IC50: minimum unconstrained, read-out: IC50 (concentration giving 50% of the maximal achievable inhibition)
# T1 construct: expressed in transfected cells; host or cells: Xenopus laevis oocytes injected with cRNA (GluN1:GluN2 1:1)
# Experimental: (§1) Nomenclature of NMDA receptor subunits follows [Collingridge et al. (2009)] and [Alexander et al. (2011)]. pSP64T-based plasmid constructs containing cDNA coding for rat GluN1-1a (i.e. the splice variant that lacks exon 5, but contains exons 21 and 22), hereafter termed GluN1 and wild-type rat GluN2A receptor subunits were prepared as described by ([Chen et al., 2005]). The rat GluN2B-containing cDNA expression vector was a gift by Stephen Traynelis (Emory University, Atlanta, GA). cRNA was synthesized as runoff transcripts as previously detailed ([Chen et al., 2005], [2008]; [Erreger et al., 2007]). Fluorescence intensity in ethidium bromide-stained agarose gels was employed to confirm the fidelity and yield of synthesized cRNAs. For recombinant receptor expression, GluN1 and GluN2 cRNAs were mixed at a nominal ratio of 1:1 and diluted with nuclease-free water to 5 ng μl^−1.
# (§2) Oocytes (Stage V–VI) were removed from Xenopus laevis that had been killed in accordance with current UK Home Office protocols and defolliculated by initial collagenase treatment, then manually using forceps. 23–37 nl of cRNA mix was injected into oocytes which were subsequently maintained in Barth's solution (composition in mM: NaCl 88, KCl 1, NaHCO3 2.4, MgCl2 0.82, CaCl2 0.77, Tris-Cl 15, adjusted to pH 7.35 with NaOH and supplemented with 50 IU ml^−1 penicillin, 50 μg ml^−1 streptomycin, 50 μg ml^−1 tetracycline) for 24–48 h at 19 °C to allow for receptor expression and then stored at 4 °C until required for electrophysiological measurements.
# (§3) Two-electrode voltage-clamp (TEVC) recordings were made using a GeneClamp 500 amplifier (Molecular Devices, Sunnyvale, CA) at room temperature (18–21 °C) from oocytes placed in a bath that was perfused with a solution comprising (in mM): NaCl 115, KCl 2.5, HEPES 10, BaCl2 1.8, EDTA 0.01; pH 7.4 with NaOH. Note EDTA was included to chelate contaminating low nanomolar levels of Zn^2+ that potently block of GluN2A-containing NMDARs in a voltage-independent manner. […] TEVC recordings were performed at −30 or −40 mV. Currents were filtered at 10 Hz and digitized online at 100 Hz, via a Digidata 1200 A/D interface (Molecular Devices, Union City, CA, USA), using WinEDR 3.1.9 software (Strathclyde Electrophysiology Software, Strathclyde University, UK).
# The concentration of TCN 201 required to inhibit 50% (IC50) of agonist-evoked responses were determined by fitting data to the equation: I=I[B]∞+((I[B]0−I[B]∞)/(1+([B]/IC50)^nH)), where I is current response, I[B]0 is predicted maximum current in the absence of antagonist, I[B]∞ is the predicted minimum current in the presence of an infinite concentration of antagonist,[B] is the concentration of the antagonist and nH represents the Hill coefficient. To obtain an overall mean IC50 value, data points were normalised to the predicted maximum, pooled and refitted with the equation, with the maximum of each curve being constrained to asymptote to 1 but with the minimum fitted as a free parameter ([Otton et al., 2011]; [Wrighton et al., 2008]). In addition we fitted data points where both the maximum and minimum were constrained (to 1 and 0, respectively). The F ratio was calculated from the following equation: F=(SSR1−SSR2)/(DF1−DF2)/SSR2/DF2, where SSR1 and SSR2 are the sum of squared residuals of the constrained and unconstrained fits respectively and DF1 and DF2 are the degrees of freedom associated with each of the two fits.
# GluN1/GluN2B NMDARs = molecular target: T2, GluN1/GluN2B NMDARs (Rattus norvegicus, UniProt P35439+Q00960); assay: TEVC recordings of NMDAR currents from Xenopus laevis oocytes expressing GluN1/GluN2B; assay type: cell-based; conditions: TCN 201 10 μM, read-out: percentage inhibition of GluN1/GluN2B NMDAR-mediated currents
# T2 construct: expressed in transfected cells; host or cells: Xenopus laevis oocytes injected with cRNA (GluN1:GluN2 1:1)
# Experimental: as §1, §2
# Two-electrode voltage-clamp (TEVC) recordings were made using a GeneClamp 500 amplifier (Molecular Devices, Sunnyvale, CA) at room temperature (18–21 °C) from oocytes placed in a bath that was perfused with a solution comprising (in mM): NaCl 115, KCl 2.5, HEPES 10, BaCl2 1.8, EDTA 0.01; pH 7.4 with NaOH. Note EDTA was included to chelate contaminating low nanomolar levels of Zn^2+ that potently block of GluN2A-containing NMDARs in a voltage-independent manner. […] TEVC recordings were performed at −30 or −40 mV. […]
# GluN1/GluN2A NMDARs [2] = molecular target: T1, GluN1/GluN2A NMDARs; assay: Schild analysis of antagonism at GluN1/GluN2A NMDARs (TEVC, oocytes); assay type: cell-based; conditions: for dose ratio (r) for shift in glycine potency: glutamate 30 μM; for Schild plot slope (free linear regression fit): 0.3, 1 and 3 μM TCN 201 data points
# Experimental: as §1, §2, §3
# TCN 201 antagonism at the GluN1/GluN2A NMDAR was examined by the Schild method ([Arunlakshana and Schild, 1959]; [Wyllie and Chen, 2007]). Dose-ratios (r) were defined as the ratio of the concentration of agonist, in the presence of a fixed concentration of antagonist, required to evoke the same response that was obtained in the absence of the antagonist. Dose-ratios from individual oocytes were determined at low agonist concentrations by constructing a partial concentration-response curve generated in the absence of antagonist and in the presence of a series of increasing antagonist concentrations. Due to the lack of sufficient perfusion lines, the dose-ratio estimate for the higher concentrations of TCN 201 (3 and 10 μM) was determined in a separate series of experiments from those carried out for the lower two concentrations (0.3 and 1 μM). Each series of two-point concentration-response curves were plotted on a log–log scale and the slope of the line used to fit the initial (antagonist-free) two-point concentration-response curve was used to fit the remaining curves. These parallel fits were used to calculate an overall mean r value for each antagonist concentration [B], which were then used to construct a Schild plot. On a log–log scale the gradient of the line used to fit such data is predicted by the Schild equation to be unity for a competitive antagonist. […] For ‘allosteric’ antagonism at equilibrium, the Schild plot deviates from unity at higher concentrations of antagonist ([Christopoulos and Kenakin, 2002]). […]
# [3] = test system: NMDAR-mediated currents in rat cortical neurones; assay: Whole-cell NMDA-evoked currents in cultured cortical neurones; assay type: cell-based; conditions: TCN 201 10 μM after ifenprodil, NMDA 50 μM, glycine 3 μM
# [4] = Solubility in external recording solutions; assay type: physicochemical; conditions: external recording solutions for TEVC or whole-cell patch-clamp; from 3 mM DMSO stock
# Experimental: Glutamate, glycine and D-serine were purchased from Sigma–Aldrich (Poole, UK). TCN 201, TCN 213, NMDA, ifenprodil, picrotoxin and tetrodotoxin were purchased from Tocris Bioscience (Bristol, UK). Stock solutions (3 mM) of TCN 201 were made by dissolving the antagonist in DMSO.
# GluN1/GluN2A NMDARs [5] = molecular target: T1, GluN1/GluN2A NMDARs; set-up: method as in McKay et al., 2012; conditions: ref McKay et al., 2012, cited from earlier work
# [6] = glutamate 30 μM, D-serine 10 μM
# [7] = glutamate 30 μM, D-serine 30 μM
# T1 sequence (Q00959 20-1464 limits assumed, other chains not shown): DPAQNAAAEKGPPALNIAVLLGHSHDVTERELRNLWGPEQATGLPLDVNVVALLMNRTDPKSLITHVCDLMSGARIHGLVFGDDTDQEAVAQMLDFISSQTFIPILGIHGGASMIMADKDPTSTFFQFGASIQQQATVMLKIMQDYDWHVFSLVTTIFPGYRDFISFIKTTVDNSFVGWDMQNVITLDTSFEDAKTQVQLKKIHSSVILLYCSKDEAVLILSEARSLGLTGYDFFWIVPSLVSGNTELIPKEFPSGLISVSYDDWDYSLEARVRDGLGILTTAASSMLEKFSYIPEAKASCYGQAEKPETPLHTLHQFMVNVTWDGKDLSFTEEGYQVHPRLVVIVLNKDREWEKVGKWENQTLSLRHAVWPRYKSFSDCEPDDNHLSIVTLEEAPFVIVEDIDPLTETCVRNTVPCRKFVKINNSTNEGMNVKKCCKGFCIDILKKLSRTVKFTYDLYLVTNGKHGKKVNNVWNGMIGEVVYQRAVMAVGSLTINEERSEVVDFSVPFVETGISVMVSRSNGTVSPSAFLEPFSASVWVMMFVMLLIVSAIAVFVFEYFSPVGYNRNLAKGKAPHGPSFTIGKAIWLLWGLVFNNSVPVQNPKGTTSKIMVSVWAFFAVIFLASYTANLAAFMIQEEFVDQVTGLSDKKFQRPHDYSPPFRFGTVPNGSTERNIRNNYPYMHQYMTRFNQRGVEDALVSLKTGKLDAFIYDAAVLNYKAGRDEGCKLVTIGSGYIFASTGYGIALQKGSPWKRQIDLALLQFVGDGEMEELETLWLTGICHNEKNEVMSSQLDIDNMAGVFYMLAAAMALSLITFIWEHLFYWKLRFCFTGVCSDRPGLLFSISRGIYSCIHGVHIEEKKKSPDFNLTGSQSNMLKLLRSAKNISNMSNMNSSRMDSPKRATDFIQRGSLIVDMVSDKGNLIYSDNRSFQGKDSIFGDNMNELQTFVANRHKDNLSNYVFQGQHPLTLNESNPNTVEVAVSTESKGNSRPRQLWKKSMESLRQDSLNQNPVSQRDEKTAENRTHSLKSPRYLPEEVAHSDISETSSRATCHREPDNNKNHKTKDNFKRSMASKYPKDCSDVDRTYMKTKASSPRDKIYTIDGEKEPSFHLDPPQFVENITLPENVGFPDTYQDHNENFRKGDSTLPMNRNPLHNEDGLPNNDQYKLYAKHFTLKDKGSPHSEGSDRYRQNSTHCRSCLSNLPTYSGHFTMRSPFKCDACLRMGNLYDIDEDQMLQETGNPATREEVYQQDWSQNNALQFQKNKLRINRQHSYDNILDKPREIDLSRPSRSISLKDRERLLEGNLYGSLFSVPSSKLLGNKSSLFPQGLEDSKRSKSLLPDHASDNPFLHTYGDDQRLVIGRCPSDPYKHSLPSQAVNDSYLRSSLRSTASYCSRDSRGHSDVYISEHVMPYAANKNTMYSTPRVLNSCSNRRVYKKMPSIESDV
# T2 sequence (Q00960 27-1482, other chains not shown): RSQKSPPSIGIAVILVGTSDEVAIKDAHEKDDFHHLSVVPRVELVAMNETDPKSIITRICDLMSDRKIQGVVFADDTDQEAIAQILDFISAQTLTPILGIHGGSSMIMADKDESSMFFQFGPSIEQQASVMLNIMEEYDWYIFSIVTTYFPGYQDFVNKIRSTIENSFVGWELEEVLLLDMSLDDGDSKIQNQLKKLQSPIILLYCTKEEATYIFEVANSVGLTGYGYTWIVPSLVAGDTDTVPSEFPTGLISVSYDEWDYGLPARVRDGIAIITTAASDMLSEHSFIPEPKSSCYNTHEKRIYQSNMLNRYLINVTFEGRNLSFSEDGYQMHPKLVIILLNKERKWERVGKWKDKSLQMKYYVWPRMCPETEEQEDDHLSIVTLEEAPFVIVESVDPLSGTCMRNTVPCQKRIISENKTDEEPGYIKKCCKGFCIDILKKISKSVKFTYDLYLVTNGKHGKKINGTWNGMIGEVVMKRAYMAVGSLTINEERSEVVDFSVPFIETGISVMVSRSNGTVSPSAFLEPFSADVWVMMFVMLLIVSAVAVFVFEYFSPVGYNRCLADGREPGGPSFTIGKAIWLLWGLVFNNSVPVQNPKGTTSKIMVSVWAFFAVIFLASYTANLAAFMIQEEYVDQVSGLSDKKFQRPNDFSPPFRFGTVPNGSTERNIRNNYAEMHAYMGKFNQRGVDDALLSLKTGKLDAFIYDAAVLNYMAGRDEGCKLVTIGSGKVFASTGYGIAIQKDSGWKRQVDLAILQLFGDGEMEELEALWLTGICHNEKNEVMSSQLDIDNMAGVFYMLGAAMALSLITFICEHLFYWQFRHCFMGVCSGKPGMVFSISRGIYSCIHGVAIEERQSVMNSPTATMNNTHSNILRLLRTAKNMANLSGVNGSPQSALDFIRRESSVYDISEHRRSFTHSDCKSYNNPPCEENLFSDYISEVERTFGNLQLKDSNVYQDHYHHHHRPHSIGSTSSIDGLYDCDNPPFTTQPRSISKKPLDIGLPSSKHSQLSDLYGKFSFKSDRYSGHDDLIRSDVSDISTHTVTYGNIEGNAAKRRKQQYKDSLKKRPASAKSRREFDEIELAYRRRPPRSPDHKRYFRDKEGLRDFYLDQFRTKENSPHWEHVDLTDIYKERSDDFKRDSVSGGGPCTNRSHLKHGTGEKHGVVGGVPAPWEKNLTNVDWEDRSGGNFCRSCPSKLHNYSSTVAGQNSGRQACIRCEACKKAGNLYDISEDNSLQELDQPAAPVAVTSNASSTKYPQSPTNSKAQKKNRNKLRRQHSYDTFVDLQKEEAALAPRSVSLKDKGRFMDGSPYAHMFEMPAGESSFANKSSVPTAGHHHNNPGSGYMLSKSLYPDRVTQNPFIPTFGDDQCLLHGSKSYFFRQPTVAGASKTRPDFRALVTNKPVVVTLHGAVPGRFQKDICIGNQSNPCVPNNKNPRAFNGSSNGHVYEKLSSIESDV
smiles,measurement,setting,value
"O=C(NNC(=O)c1ccc(CNS(=O)(=O)c2ccc(F)c(Cl)c2)cc1)c1ccccc1 [TCN 201, 3-chloro-4-fluoro-N-[4-[[2-(phenylcarbonyl)hydrazino]carbonyl]benzyl]benzenesulphonamide]",inhibition at 10 µM,"GluN1/GluN2A NMDARs [1]; Fig. 2b, read-out: inhibition of glutamate/glycine-evoked GluN1/GluN2A NMDAR-mediated currents",91.2 ± 1.1%
same,inhibition at 10 µM,"GluN1/GluN2A NMDARs [1]; data not shown, read-out: inhibition of NMDA/glycine-evoked GluN1/GluN2A NMDAR-mediated currents",69.9 ± 4.1%
same,inhibition at 10 µM,"GluN1/GluN2A NMDARs [1]; glutamate 3 μM, glycine 30 μM, read-out: percentage inhibition of GluN1/GluN2A NMDAR-mediated currents",54.5 ± 3.4%
same,inhibition at 10 µM,"GluN1/GluN2A NMDARs [1]; glutamate 10 μM, glycine 30 μM, read-out: percentage inhibition of GluN1/GluN2A NMDAR-mediated currents",52.2 ± 3.7%
same,inhibition at 10 µM,"GluN1/GluN2A NMDARs [1]; glutamate 30 μM, glycine 30 μM (glutamate-dependency series), read-out: percentage inhibition of GluN1/GluN2A NMDAR-mediated currents",45.8 ± 2.8%
same,inhibition of GluN1/GluN2A NMDAR-mediated currents,"GluN1/GluN2A NMDARs [1]; glutamate 30 μM, glycine 10 μM",82.4 ± 1.1%
same,inhibition of GluN1/GluN2A NMDAR-mediated currents,"GluN1/GluN2A NMDARs [1]; glutamate 30 μM, glycine 30 μM",50.7 ± 1.1%
same,Hill slope,"GluN1/GluN2A NMDARs [1]; glutamate 30 μM, D-serine 3 μM",1.57 ± 0.078
same,IC50,"GluN1/GluN2A NMDARs [1]; glutamate 30 μM, D-serine 3 μM",0.326 ± 0.018 µM
same,Hill slope,GluN1/GluN2A NMDARs [1]; [6],1.33 ± 0.21
same,IC50,GluN1/GluN2A NMDARs [1]; [6],0.816 ± 0.231 µM
same,Hill slope,GluN1/GluN2A NMDARs [1]; [7],1.17 ± 0.07
same,IC50,GluN1/GluN2A NMDARs [1]; [7],1.92 ± 0.25 µM
same,Hill slope,"GluN1/GluN2A NMDARs [1]; glutamate 30 μM, glycine 3 μM",1.42 ± 0.061
same,IC50,"GluN1/GluN2A NMDARs [1]; glutamate 30 μM, glycine 3 μM",0.446 ± 0.026 µM
same,Hill slope,"GluN1/GluN2A NMDARs [1]; glutamate 30 μM, glycine 10 μM",1.49 ± 0.21
same,IC50,"GluN1/GluN2A NMDARs [1]; glutamate 30 μM, glycine 10 μM",0.746 ± 0.133 µM
same,Hill slope,"GluN1/GluN2A NMDARs [1]; glutamate 30 μM, glycine 30 μM",1.17 ± 0.11
same,IC50,"GluN1/GluN2A NMDARs [1]; glutamate 30 μM, glycine 30 μM",3.89 ± 1.06 µM
same,predicted maximal inhibition,"GluN1/GluN2A NMDARs [1]; saturating glycine (or D-serine), from fits with unconstrained minima",around 40%
same,inhibition at 10 µM,GluN1/GluN2B NMDARs; glycine 3 μM,1.8 ± 0.6%
same,inhibition at 10 µM,GluN1/GluN2B NMDARs; glycine 10 μM,3.1 ± 1%
same,inhibition at 10 µM,GluN1/GluN2B NMDARs; glycine 30 μM,3.1 ± 0.8%
same,dose ratio (r) for shift in glycine potency,GluN1/GluN2A NMDARs [2]; 0.3 μM TCN 201,5.19 ± 0.4
same,dose ratio (r) for shift in glycine potency,GluN1/GluN2A NMDARs [2]; 1 μM TCN 201,16.7 ± 2.1
same,dose ratio (r) for shift in glycine potency,GluN1/GluN2A NMDARs [2]; 3 μM TCN 201,41.1 ± 1.5
same,dose ratio (r) for shift in glycine potency,GluN1/GluN2A NMDARs [2]; 10 μM TCN 201,49.0 ± 2.0
same,pA2,"GluN1/GluN2A NMDARs [2]; GluN1/GluN2A NMDARs, from Schild plot intercept",7.15
same,Schild plot slope (free linear regression fit),GluN1/GluN2A NMDARs [2]; agonist D-serine,0.87
same,allosteric constant (α),"GluN1/GluN2A NMDARs [2]; agonist D-serine, modified equation",0.0106
same,Kb,"GluN1/GluN2A NMDARs [2]; agonist D-serine, modified equation, all data points, read-out: allosteric KB^# (allosteric antagonist dissociation constant)",0.066 µM
same,Kb,"GluN1/GluN2A NMDARs [2]; agonist D-serine, slope constrained to unity, first three data points, read-out: equilibrium constant (KB)",0.081 µM
same,maximum shift in the dose ratio (= 1/α),GluN1/GluN2A NMDARs [2]; agonist glycine,around 80 fold
same,Schild plot slope (free linear regression fit),GluN1/GluN2A NMDARs [2]; agonist glycine,0.98
same,TCN 201 concentration needed to achieve the maximum dose-ratio shift,"GluN1/GluN2A NMDARs [2]; agonist glycine, above limit of solubility",approximately 275 μM
same,allosteric constant (α),"GluN1/GluN2A NMDARs [2]; agonist glycine, modified equation",0.0123
same,Kb,"GluN1/GluN2A NMDARs [2]; agonist glycine, modified equation, all data points, read-out: allosteric KB^# (allosteric antagonist dissociation constant)",0.056 µM
same,Kb,"GluN1/GluN2A NMDARs [2]; agonist glycine, slope constrained to unity, first three data points, read-out: equilibrium constant (KB)",0.07 µM
same,potency relative to TCN 213 at GluN1/GluN2A NMDARs,GluN1/GluN2A NMDARs [2]; comparison of pA2 / equilibrium constants,around 30 times
same,maximum shift in the dose ratio (= 1/α),GluN1/GluN2A NMDARs [2]; glycine or D-serine as GluN1-site agonist,80–90 fold
same,block of NMDAR-mediated current (percentage of the original current magnitude),[3]; DIV 9–10 neurones,5 ± 2%
same,block of NMDAR-mediated current (percentage of the original current magnitude),[3]; DIV 15–18 neurones,16 ± 3%
same,block of NMDAR-mediated current (percentage of the original current magnitude),[3]; GluN2A-transfected DIV 9–10 neurones,47 ± 4%
same,maximum usable concentration (noticeable precipitate at higher concentrations),[4],10 µM
"O=C(CSc1nnc(NCc2ccccc2)s1)NCC1CCCCC1 [TCN 213, N-(cyclohexylmethyl)-2-[{5-[(phenylmethyl)amino]-1,3,4-thiadiazol-2-yl}thio]acetamide]",inhibition of GluN1/GluN2A NMDAR-mediated currents,"GluN1/GluN2A NMDARs [1]; glutamate 30 μM, glycine 10 μM",44.0 ± 2.2%
same,inhibition of GluN1/GluN2A NMDAR-mediated currents,"GluN1/GluN2A NMDARs [1]; glutamate 30 μM, glycine 30 μM",17.3 ± 1.4%
same,pA2,GluN1/GluN2A NMDARs [5]; GluN1/GluN2A NMDARs,5.69
same,Kb,"GluN1/GluN2A NMDARs [5]; Schild analysis, agonist glycine, read-out: equilibrium constant (KB)",2 µM
